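Dose response: 5 concentrations. Exposure: 48 h. Format: 96-well plates. Endpoint: linear interpolation; highest concentration if not reached. GI50 is the concentration that inhibits growth by half. TGI denotes the concentration required for complete inhibition of growth.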
Tests used:
Test in all cases: NCI tumour cell line growth inhibition, 48 h
RPMI-8226 leukemia = system: RPMI-8226 leukemia
NCI-H226 lung = system: NCI-H226 lung
SK-MEL-2 melanoma = system: SK-MEL-2 melanoma
IGROV1 ovarian = system: IGROV1 ovarian
PC-3 prostate = system: PC-3 prostate
HOP-92 NSCLC = system: HOP-92 NSCLC
SN12C renal = system: SN12C renal
CAKI-1 renal = system: CAKI-1 renal
NCI-H460 lung = system: NCI-H460 lung
HS 578T breast = system: HS 578T breast
BT-549 breast = system: BT-549 breast
OVCAR-3 ovarian = system: OVCAR-3 ovarian
786-0 renal = system: 786-0 renal
OVCAR-4 ovarian = system: OVCAR-4 ovarian
SW-620 colon = system: SW-620 colon
NCI-H522 lung = system: NCI-H522 lung
SR leukemia = system: SR leukemia
NCI-H23 lung = system: NCI-H23 lung
SK-MEL-5 melanoma = system: SK-MEL-5 melanoma
UO-31 renal = system: UO-31 renal
HCT-15 colon = system: HCT-15 colon
HL-60(TB) leukemia = system: HL-60(TB) leukemia
SNB-75 CNS = system: SNB-75 CNS
SF-539 CNS = system: SF-539 CNS
HT29 colon = system: HT29 colon
SF-295 CNS = system: SF-295 CNS
RXF 393 renal = system: RXF 393 renal
SF-268 CNS = system: SF-268 CNS
A549 NSCLC = system: A549 NSCLC
SK-MEL-28 melanoma = system: SK-MEL-28 melanoma
HCC-2998 colon = system: HCC-2998 colon
MCF7 breast = system: MCF7 breast
A498 renal = system: A498 renal
UACC-62 melanoma = system: UACC-62 melanoma
OVCAR-8 ovarian = system: OVCAR-8 ovarian
COLO 205 colon = system: COLO 205 colon
OVCAR-5 ovarian = system: OVCAR-5 ovarian
SK-OV-3 ovarian = system: SK-OV-3 ovarian
HOP-62 NSCLC = system: HOP-62 NSCLC
MDA-MB-231 breast = system: MDA-MB-231 breast
NCI/ADR-RES ovarian = system: NCI/ADR-RES ovarian
LOX IMVI melanoma = system: LOX IMVI melanoma
TK-10 renal = system: TK-10 renal
UACC-257 melanoma = system: UACC-257 melanoma
M14 melanoma = system: M14 melanoma
SNB-19 CNS = system: SNB-19 CNS
MDA-MB-435 = system: MDA-MB-435
EKVX NSCLC = system: EKVX NSCLC
HCT-116 colon = system: HCT-116 colon
U251 CNS = system: U251 CNS
MALME-3M melanoma = system: MALME-3M melanoma
DU-145 prostate = system: DU-145 prostate
T-47D breast = system: T-47D breast
ACHN renal = system: ACHN renal

COC(=O)Nc1nc2ccc(C(=O)c3ccc(F)cc3)cc2[nH]1
GI50 (RPMI-8226 leukemia): 434 nM
GI50 (NCI-H226 lung): 464 nM
TGI (NCI-H226 lung): 3.23 µM
GI50 (SK-MEL-2 melanoma): 4.14 µM
TGI (SK-MEL-2 melanoma): > 49.8 µM
GI50 (IGROV1 ovarian): 513 nM
TGI (IGROV1 ovarian): > 66.1 µM
GI50 (PC-3 prostate): 226 nM
TGI (PC-3 prostate): > 100 µM
GI50 (HOP-92 NSCLC): 4.81 µM
TGI (HOP-92 NSCLC): 50.3 µM
GI50 (SN12C renal): 841 nM
TGI (SN12C renal): > 100 µM
GI50 (CAKI-1 renal): 2340 nM
TGI (CAKI-1 renal): > 36.4 µM
GI50 (NCI-H460 lung): 336 nM
TGI (NCI-H460 lung): > 100 µM
GI50 (HS 578T breast): 146 nM
TGI (HS 578T breast): 502 nM
GI50 (BT-549 breast): 2440 nM
TGI (BT-549 breast): > 100 µM
GI50 (OVCAR-3 ovarian): 51.7 nM
TGI (OVCAR-3 ovarian): 211 nM
GI50 (786-0 renal): 578 nM
TGI (786-0 renal): 7.83 µM
GI50 (OVCAR-4 ovarian): 1210 nM
TGI (OVCAR-4 ovarian): > 100 µM
GI50 (SW-620 colon): 92.2 nM
TGI (SW-620 colon): > 100 µM
GI50 (NCI-H522 lung): 311 nM
GI50 (SR leukemia): 44.2 nM
TGI (SR leukemia): > 100 µM
GI50 (NCI-H23 lung): 1120 nM
TGI (NCI-H23 lung): 56.2 µM
GI50 (SK-MEL-5 melanoma): 242 nM
TGI (SK-MEL-5 melanoma): > 24.2 µM
GI50 (UO-31 renal): 2290 nM
TGI (UO-31 renal): > 100 µM
GI50 (HCT-15 colon): 90.9 nM
TGI (HCT-15 colon): > 100 µM
GI50 (HL-60(TB) leukemia): 107 nM
TGI (HL-60(TB) leukemia): 608 nM
GI50 (SNB-75 CNS): 205 nM
TGI (SNB-75 CNS): 12.4 µM
GI50 (SF-539 CNS): 242 nM
TGI (SF-539 CNS): 778 nM
GI50 (HT29 colon): 78.5 nM
TGI (HT29 colon): > 100 µM
GI50 (SF-295 CNS): 94 nM
TGI (SF-295 CNS): 966 nM
GI50 (RXF 393 renal): 763 nM
TGI (RXF 393 renal): > 100 µM
GI50 (SF-268 CNS): 644 nM
TGI (SF-268 CNS): 7.65 µM
GI50 (A549 NSCLC): 468 nM
TGI (A549 NSCLC): > 100 µM
GI50 (SK-MEL-28 melanoma): 556 nM
TGI (SK-MEL-28 melanoma): > 100 µM
GI50 (HCC-2998 colon): 173 nM
GI50 (MCF7 breast): 86.7 nM
TGI (MCF7 breast): > 100 µM
GI50 (A498 renal): 403 nM
TGI (A498 renal): 4.47 µM
GI50 (UACC-62 melanoma): 199 nM
TGI (UACC-62 melanoma): 17.8 µM
GI50 (OVCAR-8 ovarian): 639 nM
TGI (OVCAR-8 ovarian): > 31.6 µM
GI50 (COLO 205 colon): 152 nM
TGI (COLO 205 colon): 554 nM
GI50 (OVCAR-5 ovarian): 2450 nM
TGI (OVCAR-5 ovarian): > 100 µM
GI50 (SK-OV-3 ovarian): 510 nM
TGI (SK-OV-3 ovarian): 11.2 µM
GI50 (HOP-62 NSCLC): 682 nM
TGI (HOP-62 NSCLC): 29.1 µM
GI50 (MDA-MB-231 breast): 563 nM
TGI (MDA-MB-231 breast): 13.6 µM
GI50 (NCI/ADR-RES ovarian): 108 nM
TGI (NCI/ADR-RES ovarian): 562 nM
GI50 (LOX IMVI melanoma): 762 nM
TGI (LOX IMVI melanoma): > 100 µM
GI50 (TK-10 renal): 1720 nM
TGI (TK-10 renal): 58.3 µM
GI50 (UACC-257 melanoma): 68 µM
TGI (UACC-257 melanoma): > 100 µM
GI50 (M14 melanoma): 173 nM
TGI (M14 melanoma): > 100 µM
GI50 (SNB-19 CNS): 322 nM
TGI (SNB-19 CNS): 15.4 µM
GI50 (MDA-MB-435): 33.5 nM
TGI (MDA-MB-435): 155 nM
GI50 (EKVX NSCLC): 438 nM
TGI (EKVX NSCLC): > 100 µM
GI50 (HCT-116 colon): 146 nM
TGI (HCT-116 colon): > 100 µM
GI50 (U251 CNS): 287 nM
TGI (U251 CNS): 6.68 µM
GI50 (MALME-3M melanoma): 193 nM
TGI (MALME-3M melanoma): 26.9 µM
GI50 (DU-145 prostate): 298 nM
TGI (DU-145 prostate): 858 nM
GI50 (T-47D breast): 338 nM
TGI (T-47D breast): > 100 µM
GI50 (ACHN renal): 1050 nM
TGI (ACHN renal): > 100 µM

Reference: PubChem BioAssay (NCI)
